One series deals with T1, hERG channel (Homo sapiens, UniProt Q12809).
T1 construct: purchased Invitrogen PV5365
Description: biochemical. The settings on record: fluorescence polarization binding assay. As to the method: An hERG channel binding assay was performed using the Predictor hERG Fluorescence Polarization Assay Kit (PV5365, Invitrogen). […] Fluorescence intensity (excitation at 530 nm, emission at 590 nm) was measured using a multi-mode microplate reader Synergy Neo (Biotek). […]
Ta b l e S2 . CYP inhibition, microsomal stability, and hERG in hibition of 5a .
CYP inhibitiona Microsomal stabilityb
( % of c ont rol ac ti vit y) (% of remaining compound) hERG inhibitionc (IC50, μ M) […]
aCytochrome P450 (CYP450) enzyme activity was measured by incubating CYP450 enzyme isotype-specific substrates and liver microsomes in the presence of the test compound (10 μM) for 15 min. Data are expressed as percent of CYP enzyme activity relative to that of t he v ehicle-treated control. bThe test compound was incubated with microsomes for 30 min and the percentage of the remaining compound was measured via liquid chromatography- tandem mass spectrometry (LC-MS/MS). cHuman Ether-à -go -go -related gene (hERG) channel binding assay was performed using a predictor hERG fluorescence polarization assay (Invitrogen); IC50 values were calculated with non-linear regression fit with four parameters. a- cThe results of these three assays were obtained through the in vitro ADME/Tox study service of KMEDIhub, a contract research organization (CRO). The reported measurements are the mean of […]
For orientation: Polarisation of emitted light reports the rotation of a fluorescent probe.

The test system of a further series is BV-2 microglial cells. Briefly: HO-1 expression and intracellular ROS in BV-2 microglia. In kind it is cell-based, mouse. As to the method: Total proteins were extracted from cells or mouse brain tissues using radioimmunoprecipitation assay (RIPA) buffer (Sigma-Aldrich) containing a protease and phosphatase inhibitor cocktail (Roche Diagnostics). After 30 min of incubation with RIPA buffer on ice, lysates were centrifuged at 15800 g and 4 °C for 20 min and supernatants were collected. Protein concentrations were determined using Pierce® BCA Protein Assay Kit (Thermo Fisher Scientific). Protein samples (10 μg) were separated on 10% SDS-PAGE gels and transferred to polyvinylidene fluoride (PVDF) membranes (Millipore). The membranes were blocked in 5% skim milk (Millipore) in TBST (10 mM Tris-HCl, pH 7.5, 150 mM NaCl, and 0.1% Tween® 20) for 1 h at room temperature and incubated overnight at 4 °C with primary antibodies. […] The western blot bands were analyzed using ImageJ software (NIH) and β-Actin or glyceraldehyde 3-phosphate dehydrogenase (GAPDH) were used as a loading control. […]
Intracellular ROS accumulation was monitored using the cell-permeable fluorescent probe DCFH-DA (Sigma-Aldrich). […] After washing with phosphate-buffered saline (PBS), cells were imaged with an ImageXpress Pico (Molecular Devices) and fluorescence intensity was quantified using the ImageJ software (NIH).

The next series concerns primary mouse astrocytes. Briefly: Cytotoxicity assay (EZ-Cytox) in primary mouse astrocytes. In kind it is cell-based. Particulars: up to 30 μM, 24 h.
The subject of a further series is SH-SY5Y cells. Description: BACE1 expression (western blot) in SH-SY5Y cells. Particulars: 24 h. It is filed as cell-based, human. As to the method:
For the in vitro co-transfection assay, CV-1 monkey kidney cells were cultured in Dulbecco's modified Eagle's medium (DMEM) supplemented with 10% resin-charcoal-stripped fetal bovine serum (FBS), 100 U/mL penicillin, and 100 µg/mL streptomycin. To investigate the anti-inflammatory effects of 5a, BV-2 microglial cells were cultured in RPMI 1640 (Biowest) supplemented with 10% heat-inactivated FBS (Biowest), 2.05 mM L-glutamine (Gibco), and 100 U/mL penicillin/streptomycin (Gibco). Primary mouse astrocytes were isolated from postnatal day 1 C57BL/6N mouse pups. The cerebral cortices collected with the meninges removed were triturated by gentle pipetting and centrifuged. Primary astrocytes were resuspended and cultured in DMEM supplemented with 10% heat-inactivated FBS (Biowest), 10% heat-inactivated horse serum (Gibco), and 100 U/mL penicillin/streptomycin (Gibco). […]
Total proteins were extracted from cells or mouse brain tissues using radioimmunoprecipitation assay (RIPA) buffer (Sigma-Aldrich) containing a protease and phosphatase inhibitor cocktail (Roche Diagnostics). […] Protein concentrations were determined using Pierce® BCA Protein Assay Kit (Thermo Fisher Scientific). […] The western blot bands were analyzed using ImageJ software (NIH) and β-Actin or glyceraldehyde 3-phosphate dehydrogenase (GAPDH) were used as a loading control. […]
(In general: Immunoblotting shows a protein as a band on a membrane.)

Series [1] concerns C57BL/6N mice with LPS-induced neuroinflammation. Description: LPS-induced neuroinflammation mouse model. In kind it is in vivo.
The mark [2] stands for this setting: 30 mg/kg p.o. 10 days, LPS 0.3 mg/kg 7 days.
Where [3] appears, read: 30 mg/kg/day p.o., LPS 0.3 mg/kg/day i.p.

T1 sequence (Q12809 whole entry): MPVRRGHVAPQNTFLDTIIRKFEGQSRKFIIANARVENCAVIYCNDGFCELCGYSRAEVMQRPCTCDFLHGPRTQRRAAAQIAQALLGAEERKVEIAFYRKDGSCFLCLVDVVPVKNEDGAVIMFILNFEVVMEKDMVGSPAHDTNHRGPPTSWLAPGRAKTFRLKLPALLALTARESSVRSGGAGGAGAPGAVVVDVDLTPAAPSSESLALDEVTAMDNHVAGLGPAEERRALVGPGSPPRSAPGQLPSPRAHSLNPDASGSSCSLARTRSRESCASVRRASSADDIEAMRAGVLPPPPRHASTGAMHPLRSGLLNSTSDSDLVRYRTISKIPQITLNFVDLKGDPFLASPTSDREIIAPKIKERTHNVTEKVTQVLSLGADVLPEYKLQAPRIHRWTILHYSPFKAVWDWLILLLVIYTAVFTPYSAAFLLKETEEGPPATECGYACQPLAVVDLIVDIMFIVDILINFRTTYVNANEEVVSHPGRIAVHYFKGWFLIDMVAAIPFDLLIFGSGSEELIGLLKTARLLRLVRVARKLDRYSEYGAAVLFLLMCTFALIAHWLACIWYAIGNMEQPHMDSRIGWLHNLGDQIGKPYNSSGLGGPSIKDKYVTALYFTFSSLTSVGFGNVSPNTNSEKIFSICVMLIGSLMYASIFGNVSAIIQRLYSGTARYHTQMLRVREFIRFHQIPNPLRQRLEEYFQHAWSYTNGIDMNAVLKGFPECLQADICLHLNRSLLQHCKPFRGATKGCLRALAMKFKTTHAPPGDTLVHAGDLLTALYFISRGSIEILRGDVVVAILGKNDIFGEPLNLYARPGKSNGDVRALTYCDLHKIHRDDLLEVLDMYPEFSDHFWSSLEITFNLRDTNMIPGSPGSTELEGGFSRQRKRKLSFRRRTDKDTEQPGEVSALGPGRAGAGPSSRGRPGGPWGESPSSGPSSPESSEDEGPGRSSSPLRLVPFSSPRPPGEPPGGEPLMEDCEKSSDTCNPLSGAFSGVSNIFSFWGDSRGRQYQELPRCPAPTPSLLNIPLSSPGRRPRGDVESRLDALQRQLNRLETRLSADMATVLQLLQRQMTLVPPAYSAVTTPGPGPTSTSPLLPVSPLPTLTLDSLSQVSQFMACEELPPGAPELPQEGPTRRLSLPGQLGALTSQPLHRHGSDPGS

Regarding `Cc1cc(SCc2[se]c(-c3ccc(C(F)(F)F)cc3)nc2C)ccc1OCC(=O)O` [Compound 5a, {2-Methyl-4-[4-methyl-2-(4-trifluoromethyl-phenyl)-selenazol-5-yl-methylsulfanyl]-phenoxy}-acetic acid], the “hERG inhibition (IC50)” value at hERG channel was “low inhibitory effects”. Moreover, at hERG channel (read-out: hERG inhibition (IC50)), the IC50 turned out to be 9 µM. The “Intracellular ROS production (DCFH-DA)” value in the series with BV-2 microglial cells (BV-2, 5 μM 24 h, H2O2 200 μM 20 min) is on record as “suppressed ROS production”. The HO-1 expression result with BV-2 microglial cells (BV-2, 48 h) was “increased the expression of HO-1”. In addition, the “Cytotoxicity in primary astrocytes” value in the series on primary mouse astrocytes is “no cytotoxicity”. In addition, the “BACE1 expression in SH-SY5Y cells” value with SH-SY5Y cells was “dose-dependently reduced the expression of BACE1”. In addition, in series [1] (setting [2]), the “CD86 expression in IBA1-positive microglia” value is on record as “significantly reduced the expression”; the “GFAP and IBA1 immunoreactivity, hippocampus and cortex” value is given as “inhibited”; the “Plasma TNF-α and IL-6” value is “prevented the LPS-induced increases”; the “Spleen size and weight” value is “reduced the size and weight of spleens”. For the same molecule, in series [1] (setting [3]), the “Open-field motor activity (traveled distance, immobility time)” value is recorded as “improved motor activity”; the “Open-field time spent in the center” value was “spent more time in the center”; the “Passive avoidance step-through latency” value is listed as “significantly prevented this decrease”; the “Y-maze number of arm entries” value was “increased the number of arm entries”. Moreover, in series [1] (setting [3]), the Y-maze spontaneous alternation entry is “higher percentage of spontaneous alternations”.

The term IC50 denotes the midpoint of a concentration-inhibition curve.

These data come from paper PMC11488110 (Theranostics, 2024).
